In patent US7622269B2, “Methods of screening tyramine- and octopamine-expressing cells for compounds and compositions having potential insect control activity” (Tyratech, Inc., priority 2004, dated 2009):
Several values for one entry are separate records, joined by “and”; a condition that tells them apart may be missing. Equal values may be shown once. Values belong to the compound of their own block, whether it stands above or below them.

What was measured:
[1] = tested on: Drosophila melanogaster wild type strain; assay: Topical toxicity bioassay, wild type fruit fly; assay type: in vivo; details: for Wild/type LD50 values / LD50, D. melanogaster: topical application; for Wild/type LD50 values: mortality 24 hours after treatment; for % Mortality at LD50 of wild/type Drosophila melanogaster strain, Wild/type: topical, 24 hour; for LD50, D. melanogaster: 24 hours
Pa oa1 [2] = molecular target: T1, Pa oa1 (Periplaneta americana, UniProt Q7YWB7); assay: Saturation binding of 3H-yohimbine to membranes of COS-7 cells expressing Pa oa1
OAMB [3] = molecular target: T2, OAMB (Drosophila melanogaster, UniProt Q7JQF1, L268I/L487I/L521I/T180I); assay: Saturation binding of 3H-yohimbine to membranes of COS-7 cells expressing OAMB; parameters: Oligonucleotides designed to amplify the open reading frame of Drosophila melanogaster OAMB; expressed in transfected cells
Pa oa1 [4] = molecular target: T1, Pa oa1; assay: cAMP levels in HEK-293 cells expressing Pa oa1; assay type: cell-based
Procedure: (§1) Twenty-four hours before cell treatment, about 300,000 HEK-293 cells are plated in about 1 ml media with about 0.8 mg G418/ml into multi-well dishes (e.g., 12-well, 4.5 cm^2). For cell treatment, the media is aspirated and about 1 ml PBS with about 300 μM IBMX and the test reagent is added. […] Cells are incubated with about 70% ethanol for about 1 h at about −20° C. The cellular debris is centrifuged and then the supernatant is removed and lyophilized to dryness. The amount of cAMP in the extract is determined by using a cAMP binding protein from the ^3H-cAMP Biotrak assay system (Amersham Biosciences) as per the manufacturer's instructions. To test the effects of calcium chelation on cAMP levels, the cells are incubated with about […] BAPTA/AM (Calbiochem Biochemicals, La Jolla, Calif.) for about 10 min before the addition of the test reagents.
(§2) To determine cAMP levels in cells, about 24-hours before cell treatment, 300,000 HEK-293 cells are plated in 1 mL media with 0.8 mg G418/mL into multi-dishes (4.5 cm2). For cell treatment, the media is aspirated and 1 mL PBS with 300 μM IBMX and the test reagent is added. Cells are incubated at 37° C. for 20 min, and the PBS is then aspirated. Cells are incubated with 70% ethanol for 1 hour at −20° C. The cellular debris is centrifuged and then the supernatant is removed and lyophilized to dryness. The amount of cAMP in the extract is determined by using a cAMP binding protein from the ^3H-cAMP Biotrak assay system (Amersham Biosciences, Piscataway, N.J.) as per the manufacturer's instructions.

Pa oa1 [5] = molecular target: T1, Pa oa1; assay: Intracellular calcium (Fura-2) in HEK-293 cells expressing Pa oa1; assay type: cell-based
Pa oa1 [6] = molecular target: T1, Pa oa1; assay: Competitive binding against 3H-yohimbine, Pa oa1 membranes; details: Ki, about 2 nM 3H-yohimbine
control HEK-293 cells [7] = assay: cAMP levels in control HEK-293 cells transfected with pCDNA3 without insert; assay type: cell-based, human; details: up to about 100 μM
Procedure: as §1
To determine which second messenger signaling pathways octopamine could affect through the Pa oa1 receptor, HEK-293 cells are stably transfected with pCDNA3-Pa oa1 or pCDNA3 without an insert as a control.

control HEK-293 cells [8] = assay: Intracellular calcium in control HEK-293 cells transfected with empty pCDNA3; assay type: cell-based, human; details: about 10 μM
OAMB [9] = molecular target: T2, OAMB; assay: biochemical; assay type: binding; parameters: Oligonucleotides designed to amplify the open reading frame of Drosophila melanogaster OAMB; expressed in transfected cells
Pa oa1 [10] = molecular target: T1, Pa oa1; assay: Specific binding of 3H-yohimbine to Pa oa1 membranes in presence of plant essential oil; details: for relative potency as inhibitor of 3H-yohimbine binding, Pa oa1 vs OAMB: 50 μM; for effect on specific binding of 3H-yohimbine: 50 μM test chemical, 4 nM 3H-yohimbine
Procedure: (§3) The binding activity of ^3H-yohimbine to membranes expressing Pa oa1 or OAMB is performed in the presence and absence of three structurally related plant essential oil monoterpenoids, which are selected based on their insecticidal activity, the absence or presence and location of the hydroxyl group and a spacing group within the molecule. Membrane protein (10 μg) expressing Pa oa1 is incubated with 4 nM ^3H-yohimbine in the presence and absence of 50 μM of the test chemical. The specific activity is calculated as the difference between counts in the presence and absence of test chemical. Specific binding is calculated by determining nonspecific binding with 50 μM tested plant essential oils and subtracting nonspecific binding from total binding.

American cockroach = assay: Topical toxicity bioassay, American cockroach; assay type: in vivo, Periplaneta americana; details: for LD50, P. Americana: topical application, 24 hours
Procedure: Acetonic solutions of plant essential oils are prepared and different concentrations of each, that give from 10%-100% mortality, are applied by topical application. Controls are treated with the same volume (0.5 μl/insect) of acetone. Replicates, with 5 insects per replicate, are used for each concentration. The mortality is calculated 24 hours after treatment. Data are subjected to probit analysis to determine LD50 value for each compound.

OAMB [11] = molecular target: T2, OAMB; assay: Intracellular calcium (Fura-2) in HEK-293 cells expressing OAMB; details: 25 μM
Procedure: Cells are collected by scraping and are suspended at about 750,000 cells/ml in HBSS with about 5 μM Fura-2 AM (Sigma-Aldrich).

OAMB [12] = molecular target: T2, OAMB; assay: Specific binding of 3H-yohimbine to OAMB membranes in presence of plant essential oil; parameters: Oligonucleotides designed to amplify the open reading frame of Drosophila melanogaster OAMB; expressed in transfected cells; details: 50 μM test chemical, 4 nM 3H-yohimbine
Procedure: as §3

OAMB [13] = molecular target: T2, OAMB; assay: cAMP levels in HEK-293 cells expressing OAMB; assay type: cell-based; parameters: Oligonucleotides designed to amplify the open reading frame of Drosophila melanogaster OAMB; expressed in transfected cells; details: 50 μM, 300 μM IBMX
Procedure: as §2

[14] = 3H-yohimbine 0.5 to 50 nM, 50 μM phentolamine for nonspecific binding

T1 sequence (Q7YWB7 entry or part of it): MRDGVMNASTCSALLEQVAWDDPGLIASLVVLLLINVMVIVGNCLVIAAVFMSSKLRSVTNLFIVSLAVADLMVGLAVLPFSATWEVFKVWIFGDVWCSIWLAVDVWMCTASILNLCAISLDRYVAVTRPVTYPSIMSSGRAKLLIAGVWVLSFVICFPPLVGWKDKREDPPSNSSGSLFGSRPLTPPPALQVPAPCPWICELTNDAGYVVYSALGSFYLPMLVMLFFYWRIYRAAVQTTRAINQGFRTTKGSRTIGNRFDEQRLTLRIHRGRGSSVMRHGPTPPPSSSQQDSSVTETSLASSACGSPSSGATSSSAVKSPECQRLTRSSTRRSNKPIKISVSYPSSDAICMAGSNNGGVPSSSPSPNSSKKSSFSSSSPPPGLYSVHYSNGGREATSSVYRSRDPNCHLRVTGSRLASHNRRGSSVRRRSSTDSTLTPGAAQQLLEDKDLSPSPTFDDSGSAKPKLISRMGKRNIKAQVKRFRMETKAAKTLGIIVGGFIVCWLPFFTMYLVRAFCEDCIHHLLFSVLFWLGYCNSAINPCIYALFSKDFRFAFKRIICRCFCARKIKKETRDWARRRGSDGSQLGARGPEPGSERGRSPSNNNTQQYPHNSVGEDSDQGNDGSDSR
T2 sequence (Q7JQF1 other isoform, or with tags, fused parts or gaps T180I/L268I/L487I/L524I): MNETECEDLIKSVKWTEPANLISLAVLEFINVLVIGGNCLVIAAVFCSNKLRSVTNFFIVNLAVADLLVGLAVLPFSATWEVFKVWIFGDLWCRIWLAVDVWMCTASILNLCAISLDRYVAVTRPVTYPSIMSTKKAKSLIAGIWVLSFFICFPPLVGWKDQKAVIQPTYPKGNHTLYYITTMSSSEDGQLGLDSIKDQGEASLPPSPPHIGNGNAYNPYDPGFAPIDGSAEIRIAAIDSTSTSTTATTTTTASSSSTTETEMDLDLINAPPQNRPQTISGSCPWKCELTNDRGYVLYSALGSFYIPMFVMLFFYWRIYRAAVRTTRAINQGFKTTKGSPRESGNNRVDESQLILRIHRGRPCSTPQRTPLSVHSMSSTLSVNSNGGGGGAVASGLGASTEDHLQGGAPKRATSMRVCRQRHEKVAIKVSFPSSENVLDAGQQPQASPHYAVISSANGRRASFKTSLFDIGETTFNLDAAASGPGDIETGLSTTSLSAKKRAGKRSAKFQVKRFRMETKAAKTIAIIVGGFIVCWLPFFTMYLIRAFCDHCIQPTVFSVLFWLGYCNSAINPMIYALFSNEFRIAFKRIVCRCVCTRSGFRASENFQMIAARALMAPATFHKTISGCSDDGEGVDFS

SMILES: CCC(=O)OCCc1ccccc1 [2-phenylethyl propionate]
- Wild/type LD50 values [1]: 14.50 μg/fly
- % Mortality at LD50 of wild/type Drosophila melanogaster strain, Wild/type [1]: 53.3%

SMILES: COC(=O)[C@@H]1[C@H]2C[C@H]3c4[nH]c5ccccc5c4CCN3C[C@@H]2CC[C@@H]1O [3H-yohimbine]
- Kd (Pa oa1 [2]; [14]): ~0.0284 µM and 0.0284 µM
- Bmax for specific binding (Pa oa1 [2]; COS-7 membranes): about 11.8 pmol/mg protein
- affinity of Pa oa1 to the radioligand higher than OAMB (Pa oa1 [2]; Pa oa1 vs OAMB): about 1.5 fold
- Bmax (Pa oa1 [2]; Table B): 11.80 pmole receptor/mg protein
- Kd (OAMB [3]; [14]): ~0.043 µM and 0.043 µM
- Bmax (OAMB [3]; COS-7 membranes): about 8.04 pmol/mg
- Bmax (OAMB [3]; Table B): 8.04 pmole receptor/mg protein

SMILES: CC(=O)OCOC(=O)CN(CC(=O)OCOC(C)=O)c1ccccc1OCCOc1ccccc1N(CC(=O)OCOC(C)=O)CC(=O)OCOC(C)=O [BAPTA/AM]
- cAMP levels in absence vs presence of BAPTA/AM (Pa oa1 [4]; about 20 μM BAPTA/AM, basal, about 100 nM or about 1 μM octopamine): not found to be statistically different
- effect on increase in free intracellular calcium by about 1 μM octopamine (Pa oa1 [5]; about 20 μM BAPTA/AM): inhibit the increase in free intracellular calcium

- Ki (Pa oa1 [6]): 0.012 ± 0.003 µM
SMILES: CN(C)CCCN1c2ccccc2Sc2ccc(Cl)cc21 [Chlorpromazine]

SMILES: NCCc1ccc(O)c(O)c1 [Dopamine]
- Ki (Pa oa1 [6]): 56.6 ± 8 µM

SMILES: CCN(CC)CCNC(=O)c1cc(Cl)c(N)cc1OC [Metoclopramine]
- Ki (Pa oa1 [6]): 4.76 ± 1.32 µM

SMILES: Cc1ccc(N(CC2=NCCN2)c2cccc(O)c2)cc1 [Phentolamine]
- Ki (Pa oa1 [6]): 0.023 ± 0.009 µM

SMILES: NCCc1c[nH]c2ccc(O)cc12 [Serotonin]
- Ki (Pa oa1 [6]): 77.4 ± 11.6 µM

SMILES: NCCc1ccc(O)cc1 [Tyramine, tyramine]
- Ki (Pa oa1 [6]): ~31 µM and 31 µM
- EC50 (Pa oa1 [4]; 300 μM IBMX, read-out: EC50 for increase in cAMP): ~97.7 µM
- fold induction at 100 µM (Pa oa1 [4]; HEK293, 20 min, about 100 μM amine, read-out: increase in cAMP): ~215
- cAMP concentration (Pa oa1 [4]; about 10 nM amine, basal about 0.48 pmol cAMP): about 0.50 pmol cAMP
- cAMP (Pa oa1 [4]; about 1 μM amine): about 1.2 pmol
- concentration that increases intracellular calcium (Pa oa1 [5]): ≥ 1 µM
- effect on intracellular calcium (Pa oa1 [5]; about 100 nM): does not modulate intracellular calcium levels
- increase in tyramine concentration compared to about 10 nM octopamine required for similar response (Pa oa1 [5]; calcium and cAMP assays): about 100 fold
- effect on cAMP levels (control HEK-293 cells [7]): neither DL-octopamine nor tyramine at concentrations up to about 100 μM has significant effects on cAMP levels
- effect on intracellular calcium levels (control HEK-293 cells [8]): Neither about 10 μM octopamine nor about 10 μM tyramine modulates intracellular calcium levels
- Ki (OAMB [9]): ~33.8 µM

SMILES: OCC=Cc1ccccc1 [cinnamic alcohol, 3-phenyl-2-propen-1-ol]
- relative potency as inhibitor of 3H-yohimbine binding, Pa oa1 vs OAMB (Pa oa1 [10]): more potent against OAMB than Pa oa1
- effect on specific binding of 3H-yohimbine (Pa oa1 [10]): decrease the binding of ^3H-yohimbine
- effect on basal cAMP level (Pa oa1 [4]; 50 μM, 300 μM IBMX): slight increase in cAMP level
- changes in [Ca2+]i level (Pa oa1 [5]; 25 μM): increase [Ca^2+]i through Pa oa1 and OAMB
- LD50, D. melanogaster [1]: 1.65 μg/insect
- Wild/type LD50 values [1]: 1.65 μg/fly
- % Mortality at LD50 of wild/type Drosophila melanogaster strain, Wild/type [1]: 30.0%
- LD50, P. Americana (American cockroach): 98 μg/insect
- changes in [Ca2+]i level (OAMB [11]): increase [Ca^2+]i through Pa oa1 and OAMB
- rank of potency based on increased [Ca2+]i level (OAMB [11]): the most potent agent tested in this example
- speed of increase in [Ca2+]i (OAMB [11]): slower than the other two chemicals
- effect on specific binding of 3H-yohimbine (OAMB [12]): decrease the binding of ^3H-yohimbine
- effect on basal cAMP level (OAMB [13]): slight increase in cAMP level

SMILES: C=CCc1ccc(O)c(OC)c1 [eugenol, 2-methoxy-4-(2-propenyl)phenol]
- relative potency as inhibitor of 3H-yohimbine binding, Pa oa1 vs OAMB (Pa oa1 [10]): more potent inhibitors against Pa oa1 than OAMB
- effect on specific binding of 3H-yohimbine (Pa oa1 [10]): decrease the binding of ^3H-yohimbine
- inhibition at 50 µM (Pa oa1 [4]; HEK293, 20 min, 50 μM, 300 μM IBMX, basal cAMP, read-out: decrease in cAMP level): 24%
- changes in [Ca2+]i level (Pa oa1 [5]; 25 μM): increase [Ca^2+]i through Pa oa1 and OAMB
- rank of potency based on increased [Ca2+]i level (Pa oa1 [5]; 25 μM): the most potent agent tested in this example
- more toxic against wild type flies than trans-anethole ([1]; in vivo): 3 fold
- LD50, D. melanogaster [1]: 1.90 μg/insect
- Wild/type LD50 values [1]: 1.90 μg/fly
- % Mortality at LD50 of wild/type Drosophila melanogaster strain, Wild/type [1]: 53.3%
- more toxic against American cockroach than cinnamic alcohol (American cockroach; in vivo): about 2 fold
- more toxic against American cockroach than trans-anethole (American cockroach; in vivo): about 27 fold
- LD50, P. Americana (American cockroach): 47 μg/insect
- changes in [Ca2+]i level (OAMB [11]): increase [Ca^2+]i through Pa oa1 and OAMB
- effect on specific binding of 3H-yohimbine (OAMB [12]): decrease the binding of ^3H-yohimbine
- effect on basal cAMP level (OAMB [13]): slightly decreased cAMP level

SMILES: CC(C)=CCCC(C)=CCO [geraniol, 3,7-dimethyl-2,6-octadien-1-ol]
- Wild/type LD50 values [1]: 10.50 μg/fly
- % Mortality at LD50 of wild/type Drosophila melanogaster strain, Wild/type [1]: 60.0%

SMILES: COC(=O)c1ccccc1O [methyl salicylate, 2-hydroxybenzoic acid methyl ester]
- Wild/type LD50 values [1]: 7.50 μg/fly
- % Mortality at LD50 of wild/type Drosophila melanogaster strain, Wild/type [1]: 40.0%

SMILES: Cc1ccc(C(C)C)cc1 [p-cymene, methyl(1-methylethyl)benzene]
- Wild/type LD50 values [1]: 25.00 μg/fly
- % Mortality at LD50 of wild/type Drosophila melanogaster strain, Wild/type [1]: 40.0%

SMILES: CC=Cc1ccc(OC)cc1 [trans-anethole, 1-methoxy-4-(1-propenyl)benzene]
- effect on specific binding of 3H-yohimbine (Pa oa1 [10]): decreases the ^3H-yohimbine binding activity to only Pa oa1
- speed of increase in [Ca2+]i (Pa oa1 [5]; 25 μM): slower than eugenol and cinnamic alcohol
- changes in [Ca2+]i level (OAMB [11]): increases
- effect on specific binding of 3H-yohimbine (OAMB [12]): does not have a significant effect on binding to OAMB
- increase in cAMP level (OAMB [13]; basal cAMP): 22%
